Laboratory results published in publication PMC6154738, “Anti-Onchocerca and Anti-Caenorhabditis Activity of a Hydro-Alcoholic Extract from the Fruits of Acacia nilotica and Some Proanthocyanidin Derivatives” (Molecules : A Journal of Synthetic Chemistry and Natural …, 2017).
≈ marks a conversion by molar mass, not a printed value. Read-outs that look alike come from different tables or passages of the source.

Legend:
O. ochengi males = assay: microbe, parasite or virus in culture; design: species or system Onchocerca ochengi; conditions: for LC50: Onchocerca ochengi, 48 h; for Selectivity Index (SI) O. ochengi Males: SI = CC50 on Caco-2/LC50 on worm
From the text: The adult male worms were isolated as previously describe by Ndjonka et al. from fresh pieces of cattle skin (cow-udder) with palpable nodules obtained from the communal slaughter house of Ngaoundere in the Adamawa region of Cameroon. Nodules removed from the skin were brought to the laboratory, washed, drained and sterilized with 70% ethanol for dissection. After dissection of nodules, O. ochengi were extracted, isolated and washed three times in sterile phosphate-buffered saline (PBS). To analyze the anthelmintic activity of extract, fractions and pure compounds, the worms were incubated at 37 °C.
(§1) Adult worms (six individuals per well for males and one per well for the female) and Mf were washed twice and were subsequently transferred to RPMI-1640 medium supplemented with L-glutamine, 100 U/mL penicillin and 100 µg/mL streptomycin and incubated at 37 °C in 24-well plates (96-well plate for Mf) with different concentrations of the drugs tested. Worm mortality was checked by observation under the binocular microscope after 48 h. After shaking, immotile and fully-elongated worms were considered to be dead. All tests were done in three independent triplicate determinations.

O. ochengi females = assay: microbe, parasite or virus in culture; design: species or system Onchocerca ochengi; conditions: for LC50: Onchocerca ochengi, 48 h; for Selectivity Index (SI) O. ochengi Females: SI = CC50 on Caco-2/LC50 on worm
Procedure: The adult female worms were isolated by digestion of the nodules with collagenase at 37 °C. The female worms were cultured in a CO2-incubator [67]. For anthelmintic activity, they were incubated with the crude extracts, fractions and pure compounds.
as §1

O. ochengi microfilariae = assay: microbe, parasite or virus in culture; design: species or system Onchocerca ochengi; conditions: for LC50: Onchocerca ochengi, 48 h; for Selectivity Index (SI) O. ochengi Microfilariae: SI = CC50 on Caco-2/LC50 on worm
Procedure: Microfilariae were isolated as describe by Cho-Ngwa et al. and Ndjonka et al.. About 10 skin snips were obtained from different locations of the skin. The skin snips were then incubated at 37 °C in PBS to let Mf emerge. The highly motile Mf were concentrated by centrifugation at 400× g for 10 min and quantified. The Mf were incubated at 37 °C with the crude extract, fractions and pure compounds.
as §1

[1] = system: C. elegans CB211 (lev-1(e211) IV); assay: microbe, parasite or virus in culture; conditions: Caenorhabditis elegans, 48 h
Procedure: (§2) All strains were obtained from the Caenorhabditis Genetic Centre (CGC, Minneapolis, MN, USA). Strains were maintained at 20 °C on nematode growth medium (NGM). All worms were age-synchronized and obtained from eggs that were isolated by bleaching.
(§3) Young adult (L4 stage) worms were used to assess drug lethality. Monitored endpoint was 48 h mortality. Tests were performed in 24-well plates. Five hundred (500) microliters of test solution, which is M9-buffer (3 g KH2PO4, 6 g Na2HPO4, 5 g NaCl, 0.25 g MgSO4.7H2O, in 1 L of water after been autoclaved supplemented with 2% glucose, 0.5% cholesterol), were distributed in 24-well plates. The volume of M9-buffer equivalent to the drug to be added for each drug final concentration (in each test, three to six concentrations were used) was removed. Untreated worms in M9-buffer were used as negative control. […] Crude extract fraction (stock solution at 100 mg/mL) and pure compound (stock solution at 100 mg/mL) previously dissolved in M9-buffer were then added in well plates at increasing concentration (varying from 0 to 1000 or 1500 µg/mL for extract and fractions; 0 to 100 or 150 µg/mL). The young adult (10 to 15 ± 2) from the axenic culture (without food source) were then added at the test solution. […] Treatments were replicated three times.

[2] = system: C. elegans CB3474 (ben-1(e1880) III); assay: microbe, parasite or virus in culture; conditions: Caenorhabditis elegans, 48 h
Procedure: as §2, §3

[3] = system: C. elegans DA1316 (avr-14(ad1302) I avr-15(ad1051) glc-1(pk54)); assay: microbe, parasite or virus in culture; conditions: Caenorhabditis elegans, 48 h
Procedure: as §2, §3

C. elegans N2 Bristol WT = assay: microbe, parasite or virus in culture; conditions: for LC50: Caenorhabditis elegans, 48 h; for Selectivity Index (SI) C. elegans Wild Type: SI = CC50 on Caco-2/LC50 on worm
Procedure: as §2, §3

[4] = system: C. elegans VC722 (glc-2(ok1047) I); assay: microbe, parasite or virus in culture; conditions: Caenorhabditis elegans, 48 h
Procedure: as §2, §3

[5] = system: C. elegans ZZ16 (lev-9(x16) X); assay: microbe, parasite or virus in culture; conditions: Caenorhabditis elegans, 48 h
Procedure: as §2, §3

[6] = In vitro cytotoxicity (MTT) and CC50 determination; assay type: cell-based; conditions: human; for CC50 at 48 h: Caco-2, CC50 after 48 h calculated in µM, read-out: Cytotoxicity CC50, Caco-2 (in brackets) (converted); for CC50 at 72 h: Caco-2, MTT, read-out: Cytotoxicity, means CC50 ± SD, Caco-2
Procedure: Cell culture: […] cells at Passage 70 were kindly provided by Prof. Hensel, Institute of Pharmaceutical Biology and Phytochemistry, University of Münster, and were cultured as previously describe by Zumdick et al..
Cytotoxicity test: The cytotoxicity assays were performed according to the method of Rahman et al.. Briefly, 1.5 × 10^4 viable cells/well were seeded in a 96-well plate and incubated for 24 to 48 h. […] DMEM samples were used as the negative control. […] The medium was removed, and formazan, generated by the activity of dehydrogenases, was solubilized with 70 µL of acidified isopropanol (0.4 M HCl). The amount of MTT-formazan that is directly proportional to the number of living cells was determined by measuring the optical density (OD) at 540 nm using a spectrophotometer. All controls used were treated equally. As control and to determine 100% growth, Caco-2 cells were grown in the absence of drugs so as to calculate cell viability. All determinations were performed in triplicate. […] The selectivity index (SI) values were calculated as the ratio: SI = CC50 of drug on Caco2/LC50 of drug on worm.

O. ochengi [7] = assay: Anti-Onchocerca activity, all forms of the parasite (summary statements); conditions: read-out: LC50 against O. ochengi (all three forms)
Procedure: as §1

Wistar rats = assay: Acute oral toxicity on rats
From the text: Adult Wistar rats (Rattus norvegicus), males aged 7 to 8 weeks and weighing 150 to 200 g, used for the experiments were obtained from LANAVET (Laboratoire National Vétérinaire, Garoua, Cameroon). The rats were acclimatized for one week in the Veterinary Research Laboratory of the Institute of Agricultural Research for Development, Wakwa, Cameroon, before initiating experiments. Animals were housed in groups of three (one group for the negative control, six groups for each drug at the first phase, six others at the second phase) under ambient temperatures (23 °C ± 1 °C) with relative humidity 55 ± 5% and 12 h light/dark cycle in polycarbonate cages. […] They were monitored by a veterinarian for health status.
Acute oral toxicity (LD50, that is the dose that kills 50% of animals of the tested group) was measured using the method of the OECD guidelines for the testing of chemicals [56] following the European Community guidelines for the protection of animals used in experiments [69] and respecting the 3Rs (Replacement, Refinement, Reduction) [70]. Drugs in distilled water were orally administered separately at doses of 10 mg/kg, 100 mg/kg and 1000 mg/kg body weight. The negative controls were distilled water-administered rats. They were given to three groups of three rats each and observed for 24 h. […] The test was done at a single oral dose for each rat in a 5 mL/kg volume. The experimental animals were starved for 24 h before and 4 h after treatment. […] The appearance of toxic symptoms, such as behavioral changes, locomotion, convulsions and mortality, was observed and recorded. Animals were observed constantly for the first 30 min after administration and, thereafter, every 4 h up to 24 h and, subsequently, once a day for up to 14 days.

O. ochengi [8] = conditions: cited from earlier work
[9] = read-out: LC50/48 h (in brackets)
[10] = Phase 1, 10 mg/kg single oral dose
[11] = Phase 1, 100 mg/kg single oral dose
[12] = Phase 1, 1000 mg/kg single oral dose
[13] = Phase 2, 1500 mg/kg single oral dose
[14] = Phase 2, 3000 mg/kg single oral dose
[15] = Phase 2, 5000 mg/kg single oral dose

Row | Compound | LC50 (O. ochengi males; read-out: LC50/48 h) [µg/mL] | LC50 (O. ochengi males; [9]) [µM] | Selectivity Index (SI) O. ochengi Males (O. ochengi males) | LC50 (O. ochengi females; read-out: LC50/48 h) [µg/mL] | LC50 (O. ochengi females; [9]) [µM] | Selectivity Index (SI) O. ochengi Females (O. ochengi females) | LC50 (O. ochengi microfilariae; read-out: LC50/48 h) [µg/mL] | LC50 (O. ochengi microfilariae; [9]) [µM] | Selectivity Index (SI) O. ochengi Microfilariae (O. ochengi microfilariae) | LC50 ([1]; read-out: LC50/48 h) [µg/mL] | LC50 [1, 9] [µM] | LC50 ([2]; read-out: LC50/48 h) [µg/mL] | LC50 [2, 9] [µM] | LC50 ([3]; read-out: LC50/48 h) [µg/mL] | LC50 (C. elegans N2 Bristol WT; read-out: LC50/48 h) [µg/mL] | LC50 (C. elegans N2 Bristol WT; [9]) [µM] | Selectivity Index (SI) C. elegans Wild Type (C. elegans N2 Bristol WT) | LC50 ([5]; read-out: LC50/48 h) [µg/mL] | CC50 at 48 h [6] [µM] | CC50 at 72 h [6] [µg/mL] | also measured
1 | O=C(OC1Cc2c(O)cc(O)cc2OC1c1cc(O)c(O)c(O)c1)c1cc(O)c(O)c(O)c1 (single isomer, unassigned; (-)) [EGCG, (−)-epigallocatechin-3-O-gallate] | 1.2 ± 0.5 | 2.6 | 50.8 | 1 ± 0.5 | 2.3 | 60.9 | 1.3 ± 0.2 | 2.8 | 46.9 | 26.3 ± 1.3 | 57.4 | 35.7 ± 1 | 77.9 | 40.8 ± 0.3 | 49.8 ± 0.8 | 109 | 1.2 | > 100 | 133 | 60.9 ± 0.8 (≈ 133 µM) | LC50 [3, 9]: 89.1 µM; LC50 ([4]; read-out: LC50/48 h): 43.7 ± 2.1 µg/mL; LC50 [4, 9]: 95.4 µM; LC50 (O. ochengi [7]): < 2.5 µg/mL
2 | CCCSc1ccc2nc(NC(=O)OC)[nH]c2c1 [Albendazole, reference compound] | 4.2 ± 0.3 | 15.7 | 7 | 1 ± 0.2 | 3.9 | 29.4 | 2.1 ± 0.5 | 7.8 | 14 |  |  | > 100 |  |  |  | 26.4 | 4.1 |  | 111 | 29.4 ± 0.5 (≈ 111 µM) | Mortality of rats: rat number end/start (Wistar rats; [10]): 0/3; Mortality of rats: rat number end/start (Wistar rats; [11]): 0/3; Mortality of rats: rat number end/start (Wistar rats; [12]): 0/3; Mortality of rats: rat number end/start (Wistar rats; [13]): 0/3; Mortality of rats: rat number end/start (Wistar rats; [14]): 0/3; Mortality of rats: rat number end/start (Wistar rats; [15]): 0/3
3 | O=C(O[C@H]1Cc2c(O)cc(O)cc2O[C@@H]1c1ccc(O)c(O)c1)c1cc(O)c(O)c(O)c1 [CG, (+)-catechin-3-O-gallate] | 7.6 ± 0.2 | 17.2 | 8.7 | 4.5 ± 0.3 | 10.2 | 14.7 | 4.2 ± 0.1 | 9.4 | 15.8 | 96.4 ± 0.1 | 218 | 95.2 ± 0.3 | 215 | 96.3 ± 0.3 | 90.6 ± 0.07 | 205 | 0.7 | 95.3 ± 0.1 | 150 | 66.3 ± 0.6 (≈ 150 µM) | LC50 [3, 9]: 218 µM; LC50 ([4]; read-out: LC50/48 h): 91.8 ± 0.3 µg/mL; LC50 [4, 9]: 208 µM; LC50 [5, 9]: 215 µM; Mortality of rats: rat number end/start (Wistar rats; [10]): 0/3; Mortality of rats: rat number end/start (Wistar rats; [11]): 0/3; Mortality of rats: rat number end/start (Wistar rats; [12]): 0/3; Mortality of rats: rat number end/start (Wistar rats; [13]): 0/3; Mortality of rats: rat number end/start (Wistar rats; [14]): 0/3; Mortality of rats: rat number end/start (Wistar rats; [15]): 0/3
4 | Oc1cc(O)c2c(c1)O[C@H](c1cc(O)c(O)c(O)c1)[C@H](O)C2 [EGC, (−)-epigallocatechin] | 2.1 ± 0.4 | 6.8 | 22.4 | 3.3 ± 0.6 | 10.6 | 14.3 | 3.3 ± 0.5 | 10.6 | 14.3 | 83.3 ± 0.6 | 272 | 53.8 ± 0.9 | 176 | 87.5 ± 0.5 | 62.7 ± 0.2 | 205 | 0.8 | 92 ± 0.3 | 154 | 47.1 ± 0.5 (≈ 154 µM) | LC50 [3, 9]: 286 µM; LC50 ([4]; read-out: LC50/48 h): 93.8 ± 0.3 µg/mL; LC50 [4, 9]: 306 µM; LC50 [5, 9]: 301 µM; Mortality of rats: rat number end/start (Wistar rats; [10]): 0/3; Mortality of rats: rat number end/start (Wistar rats; [11]): 0/3; Mortality of rats: rat number end/start (Wistar rats; [12]): 0/3; Mortality of rats: rat number end/start (Wistar rats; [13]): 0/3; Mortality of rats: rat number end/start (Wistar rats; [14]): 0/3; Mortality of rats: rat number end/start (Wistar rats; [15]): 0/3
5 | Oc1cc(O)c2c(c1)O[C@H](c1cc(O)c(O)c(O)c1)[C@@H](O)C2 [GC, (+)-gallocatechin] | 4.2 ± 0.1 | 13.6 | 15.9 | 5.5 ± 0.3 | 18 | 12.1 | 3.2 ± 0.3 | 10.4 | 20.8 | 21.5 ± 0.3 | 70.2 | 83.1 ± 0.1 | 271 | 82.5 ± 0.1 | 74.3 ± 0.3 | 242 | 0.9 | 65.6 ± 0.2 | 218 | 66.7 ± 0.7 (≈ 218 µM) | LC50 [3, 9]: 269 µM; LC50 ([4]; read-out: LC50/48 h): 96.3 ± 0.07 µg/mL; LC50 [4, 9]: 314 µM; LC50 [5, 9]: 214 µM; Mortality of rats: rat number end/start (Wistar rats; [10]): 0/3; Mortality of rats: rat number end/start (Wistar rats; [11]): 0/3; Mortality of rats: rat number end/start (Wistar rats; [12]): 0/3; Mortality of rats: rat number end/start (Wistar rats; [13]): 0/3; Mortality of rats: rat number end/start (Wistar rats; [14]): 0/3; Mortality of rats: rat number end/start (Wistar rats; [15]): 0/3
6 | c1ccc([C@H]2CN3CCSC3=N2)cc1 [Levamisole, reference compound] | 1 ± 1 | 5.1 | 27.3 | 2.1 ± 0.1 | 10.2 | 13.0 | 1 ± 0.3 | 5.1 | 27.3 | > 100 |  |  |  |  | 1.4 ± 0.2 | 7.2 |  | > 100 | 31.2 | 27.3 ± 0.8 (≈ 134 µM) | 
7 | CCCCC/C=C\C/C=C\CCCCCCCC(=O)O [linoleic acid] |  |  |  |  |  |  |  |  |  |  |  |  |  |  |  |  |  |  |  |  | LC50 (O. ochengi [8]): 55.7 µM
